Consider nine molecules from ChEMBL document CHEMBL1144300, “Tellurium-based cysteine protease inhibitors: evaluation of novel organotellurium(IV) compounds as inhibitors of human cathepsin B” (Bioorg Med Chem Lett, 2005).

The experiment addresses Cathepsin B (Homo sapiens) (UniProt P07858). The experiment can be described thus: Second-order rate constant for inactivation of human cathepsin B.
Take `COc1ccc([Te]2(Cl)OC3(CCCCC3)/C2=C\Cl)cc1` (centres undefined): the K2 worked out at 36000 M⁻¹ s⁻¹.
The figure for `COc1ccc([Te](Cl)(Cl)/C=C(\Cl)c2ccccc2)cc1` is 7900 M⁻¹ s⁻¹.
Under `Cl[Te]1(Cl)OCCO1` stands 0.037 M⁻¹ s⁻¹.
Take `COc1ccccc1C(=O)/C=C(/c1ccccc1OC)[Te](Cl)(Cl)Cl`: the K2 was determined as 15000 M⁻¹ s⁻¹.
The figure for `COc1ccc([Te]2(Cl)OC3(CCCCCC3)/C2=C\Cl)cc1` (centres undefined) is 1600 M⁻¹ s⁻¹; for `COc1ccc([Te](Cl)(Cl)/C(=C/Cl)C(C)(C)O)cc1` it is 11000 M⁻¹ s⁻¹.
The figure for `OC(C/C(=C\Cl)[Te](Cl)(Cl)Cl)c1ccccc1` (centres undefined) is 12000 M⁻¹ s⁻¹; for `CC[N+](CC)(CC)Cc1ccccc1.ClC1=C[Te](Cl)(Cl)OC1` it is 6000 M⁻¹ s⁻¹; for `COc1ccc([Te]2(Cl)OC3(CCCCC3)/C2=C\Br)cc1` (centres undefined) it is 7700 M⁻¹ s⁻¹.
